≈ marks a conversion by molar mass, not a printed value.
Experiments:
Assay type in all cases: functional
Aspergillus clavatus = assay: Antifungal activity against Aspergillus clavatus MTCC 1323 by broth microdilution method
Aspergillus niger = assay: Antifungal activity against Aspergillus niger MTCC 282 by broth microdilution method
[1] = tested on: Mycobacterium tuberculosis; assay: Growth inhibition of Mycobacterium tuberculosis H37Rv MTCC 200 at 100 ug/ml after 28 days by Lowenstein-Jensen method; conditions: H37Rv MTCC 200, 672 h, read-out: GI
Salmonella typhimurium = assay: Antibacterial activity against Salmonella enterica subsp. enterica serovar Typhimurium MTCC 98 after overnight incubation by broth dilution method
Klebsiella pneumoniae = assay: Antibacterial activity against Klebsiella pneumoniae MTCC 109 after overnight incubation by broth dilution method
Pseudomonas aeruginosa = assay: Antibacterial activity against Pseudomonas aeruginosa MTCC 1688 after overnight incubation by broth dilution method
Escherichia coli = assay: Antibacterial activity against Escherichia coli MTCC 443 after overnight incubation by broth dilution method
Streptococcus pyogenes = assay: Antibacterial activity against Streptococcus pyogenes MTCC 442 after overnight incubation by broth dilution method
Candida albicans = assay: Antifungal activity against Candida albicans MTCC 227 by broth microdilution method
Bacillus subtilis = assay: Antibacterial activity against Bacillus subtilis MTCC 441 after overnight incubation by broth dilution method
Staphylococcus aureus = assay: Antibacterial activity against Staphylococcus aureus MTCC 96 after overnight incubation by broth dilution method
[2] = tested on: Mycobacterium tuberculosis; assay: Growth inhibition of Mycobacterium tuberculosis H37Rv MTCC 200 at 500 ug/ml after 28 days by Lowenstein-Jensen method; conditions: H37Rv MTCC 200, 672 h, read-out: GI
[3] = tested on: Mycobacterium tuberculosis; assay: Growth inhibition of Mycobacterium tuberculosis H37Rv MTCC 200 at 40 ug/ml after 28 days by Lowenstein-Jensen method
[4] = tested on: Mycobacterium tuberculosis; assay: Growth inhibition of Mycobacterium tuberculosis H37Rv MTCC 200 at 270 ug/ml after 28 days by Lowenstein-Jensen method; conditions: H37Rv MTCC 200, 672 h, read-out: GI
[5] = tested on: Mycobacterium tuberculosis; assay: Growth inhibition of Mycobacterium tuberculosis H37Rv MTCC 200 at 259 ug/ml after 28 days by Lowenstein-Jensen method; conditions: H37Rv MTCC 200, 672 h, read-out: GI
[6] = tested on: Mycobacterium tuberculosis; assay: Growth inhibition of Mycobacterium tuberculosis H37Rv MTCC 200 at 50 ug/ml after 28 days by Lowenstein-Jensen method; conditions: H37Rv MTCC 200, 672 h, read-out: GI
[7] = tested on: Mycobacterium tuberculosis; assay: Growth inhibition of Mycobacterium tuberculosis H37Rv MTCC 200 at 250 ug/ml after 28 days by Lowenstein-Jensen method; conditions: H37Rv MTCC 200, 672 h, read-out: GI
[8] = tested on: Mycobacterium tuberculosis; assay: Growth inhibition of Mycobacterium tuberculosis H37Rv MTCC 200 at 62.5 ug/ml after 28 days by Lowenstein-Jensen method; conditions: H37Rv MTCC 200, 672 h, read-out: GI
[9] = tested on: Mycobacterium tuberculosis; assay: Growth inhibition of Mycobacterium tuberculosis H37Rv MTCC 200 at 0.2 ug/ml after 28 days by Lowenstein-Jensen method; conditions: H37Rv MTCC 200, 672 h, read-out: GI

| Compound | MIC99 (Aspergillus clavatus) [µg/mL] | MIC99 (Aspergillus niger) [µg/mL] | inhibition of growth at 100 µg/mL [1] [%] | MIC99 (Salmonella typhimurium) [µg/mL] | MIC99 (Klebsiella pneumoniae) [µg/mL] | MIC99 (Pseudomonas aeruginosa) [µg/mL] | MIC99 (Escherichia coli) [µg/mL] | MIC99 (Streptococcus pyogenes) [µg/mL] | MIC99 (Candida albicans) [µg/mL] | MIC99 (Bacillus subtilis) [µg/mL] | MIC99 (Staphylococcus aureus) [µg/mL] | inhibition of growth at 500 µg/mL [2] [%] | inhibition of growth at 40 µg/mL ([3]; H37Rv MTCC 200, 672 h, read-out: GI) [%] | inhibition of growth at 270 µg/mL [4] [%] | inhibition of growth at 259 µg/mL [5] [%] | growth inhibition (GI) [3] [%] | inhibition of growth at 50 µg/mL [6] [%] | inhibition of growth at 250 µg/mL [7] [%] | inhibition of growth at 62.5 µg/mL [8] [%] | inhibition of growth at 0.2 µg/mL [9] [%] |
| --- | --- | --- | --- | --- | --- | --- | --- | --- | --- | --- | --- | --- | --- | --- | --- | --- | --- | --- | --- | --- |
| O=C(Nn1c(CNN2C(=O)C(Cl)C2c2ccc(Br)cc2)nc2ccccc2c1=O)c1ccncc1 (stereo unspecified) | 500 (≈ 903 µM) | 1000 (≈ 1810 µM) | 97 | 100 (≈ 181 µM) | 500 (≈ 903 µM) | 200 (≈ 361 µM) | 62.5 (≈ 113 µM) | 200 (≈ 361 µM) | 500 (≈ 903 µM) | 200 (≈ 361 µM) | 200 (≈ 361 µM) |  |  |  |  |  |  |  |  |  |
| O=C(Nn1c(CNN2C(=O)C(Cl)C2c2ccccc2Cl)nc2ccccc2c1=O)c1ccncc1 (stereo unspecified) | 250 (≈ 491 µM) | 200 (≈ 393 µM) |  | 500 (≈ 982 µM) | 100 (≈ 196 µM) | 250 (≈ 491 µM) | 250 (≈ 491 µM) | 500 (≈ 982 µM) | 200 (≈ 393 µM) | 500 (≈ 982 µM) | 500 (≈ 982 µM) | 98 |  |  |  |  |  |  |  |  |
| CO[C@H]1/C=C/O[C@@]2(C)Oc3c(C)c(O)c4c(O)c(c(/C=N/N5CCN(C)CC5)c(O)c4c3C2=O)NC(=O)/C(C)=C\C=C\[C@H](C)[C@H](O)[C@@H](C)[C@@H](O)[C@@H](C)[C@H](OC(C)=O)[C@@H]1C [RIFAMPIN] |  |  |  |  |  |  |  |  |  |  |  |  | 98 |  |  |  |  |  |  |  |
| O=C(N[C@H](CO)[C@H](O)c1ccc([N+](=O)[O-])cc1)C(Cl)Cl [CHLORAMPHENICOL] |  |  |  | 50 (≈ 155 µM) | 50 (≈ 155 µM) | 50 (≈ 155 µM) | 50 (≈ 155 µM) | 50 (≈ 155 µM) |  |  | 50 (≈ 155 µM) |  |  |  |  |  |  |  |  |  |
| O=C(Nn1c(CNN2C(=O)C(Cl)C2c2cccc([N+](=O)[O-])c2)nc2ccccc2c1=O)c1ccncc1 (stereo unspecified) | > 1000 | > 1000 |  | 250 (≈ 481 µM) | 500 (≈ 962 µM) | 250 (≈ 481 µM) | 250 (≈ 481 µM) | 500 (≈ 962 µM) | 1000 (≈ 1920 µM) | 200 (≈ 385 µM) | 500 (≈ 962 µM) |  |  | 97 |  |  |  |  |  |  |
| COc1ccc(C2C(Cl)C(=O)N2NCc2nc3ccccc3c(=O)n2NC(=O)c2ccncc2)cc1 (stereo unspecified) | 200 (≈ 396 µM) | 250 (≈ 495 µM) |  | 500 (≈ 990 µM) | 62.5 (≈ 124 µM) | 500 (≈ 990 µM) | 500 (≈ 990 µM) | 200 (≈ 396 µM) | 200 (≈ 396 µM) | 250 (≈ 495 µM) | 125 (≈ 248 µM) |  |  |  | 98 |  |  |  |  |  |
| CCc1ccc(C2C(Cl)C(=O)N2NCc2nc3ccccc3c(=O)n2NC(=O)c2ccncc2)cc1 (stereo unspecified) | > 1000 | > 1000 |  | 125 (≈ 249 µM) | 250 (≈ 497 µM) | 500 (≈ 994 µM) | 200 (≈ 398 µM) | 250 (≈ 497 µM) | 1000 (≈ 1990 µM) | 100 (≈ 199 µM) | 200 (≈ 398 µM) | 97 |  |  |  |  |  |  |  |  |
| GENTAMICIN |  |  |  | 1 | 0.05 | 1 | 0.05 | 0.5 |  |  | 0.25 |  |  |  |  | 98 |  |  |  |  |
| O=C(Nn1c(CNN2C(=O)C(Cl)C2c2ccccc2[N+](=O)[O-])nc2ccccc2c1=O)c1ccncc1 (stereo unspecified) | 500 (≈ 962 µM) | 500 (≈ 962 µM) | 99 | 250 (≈ 481 µM) | 250 (≈ 481 µM) | 200 (≈ 385 µM) | 100 (≈ 192 µM) | 250 (≈ 481 µM) | 1000 (≈ 1920 µM) | 250 (≈ 481 µM) | 200 (≈ 385 µM) |  |  |  |  |  |  |  |  |  |
| NYSTATIN | 100 | 100 |  |  |  |  |  |  | 100 |  |  |  |  |  |  |  |  |  |  |  |
| O=C(Nn1c(CNN2C(=O)C(Cl)C2c2ccccc2)nc2ccccc2c1=O)c1ccncc1 (stereo unspecified) | 500 (≈ 1050 µM) | 500 (≈ 1050 µM) |  | 200 (≈ 421 µM) | 200 (≈ 421 µM) | 125 (≈ 263 µM) | 200 (≈ 421 µM) | 250 (≈ 526 µM) | 1000 (≈ 2110 µM) | 100 (≈ 211 µM) | 250 (≈ 526 µM) | 98 |  |  |  |  |  |  |  |  |
| O=C(Nn1c(CNN2C(=O)C(Cl)C2c2ccc([N+](=O)[O-])cc2)nc2ccccc2c1=O)c1ccncc1 (stereo unspecified) | > 1000 | > 1000 |  | 200 (≈ 385 µM) | 200 (≈ 385 µM) | 150 (≈ 289 µM) | 150 (≈ 289 µM) | 125 (≈ 240 µM) | 500 (≈ 962 µM) | 100 (≈ 192 µM) | 100 (≈ 192 µM) |  |  |  |  |  | 99 |  |  |  |
| O=C(Nn1c(CNN2C(=O)C(Cl)C2c2ccc(O)cc2)nc2ccccc2c1=O)c1ccncc1 (stereo unspecified) | > 1000 | > 1000 |  | 250 (≈ 509 µM) | 250 (≈ 509 µM) | 250 (≈ 509 µM) | 250 (≈ 509 µM) | 250 (≈ 509 µM) | 500 (≈ 1020 µM) | 250 (≈ 509 µM) | 200 (≈ 407 µM) |  |  |  |  |  |  | 97 |  |  |
| O=C(Nn1c(CNN2C(=O)C(Cl)C2c2ccc(Cl)cc2)nc2ccccc2c1=O)c1ccncc1 (stereo unspecified) | 1000 (≈ 1960 µM) | 1000 (≈ 1960 µM) |  | 100 (≈ 196 µM) | 100 (≈ 196 µM) | 100 (≈ 196 µM) | 50 (≈ 98.2 µM) | 500 (≈ 982 µM) | 250 (≈ 491 µM) | 250 (≈ 491 µM) | 500 (≈ 982 µM) |  |  |  |  |  |  |  | 99 |  |
| CCn1cc(C(=O)O)c(=O)c2cc(F)c(N3CCNCC3)cc21 [NORFLOXACIN] |  |  |  | 10 (≈ 31.3 µM) | 10 (≈ 31.3 µM) | 10 (≈ 31.3 µM) | 10 (≈ 31.3 µM) | 10 (≈ 31.3 µM) |  |  | 10 (≈ 31.3 µM) |  |  |  |  |  |  |  |  |  |
| O=C(O)c1cn(C2CC2)c2cc(N3CCNCC3)c(F)cc2c1=O [CIPROFLOXACIN] |  |  |  | 25 (≈ 75.4 µM) | 25 (≈ 75.4 µM) | 25 (≈ 75.4 µM) | 25 (≈ 75.4 µM) | 50 (≈ 151 µM) |  |  | 50 (≈ 151 µM) |  |  |  |  |  |  |  |  |  |
| CC1(C)S[C@@H]2[C@H](NC(=O)[C@H](N)c3ccccc3)C(=O)N2[C@H]1C(=O)O [AMPICILLIN] |  |  |  | 100 (≈ 286 µM) | 100 (≈ 286 µM) | 100 (≈ 286 µM) | 100 (≈ 286 µM) | 100 (≈ 286 µM) |  |  | 250 (≈ 715 µM) |  |  |  |  |  |  |  |  | 99 |
| NNC(=O)c1ccncc1 [ISONIAZID] |  |  |  |  |  |  |  |  |  |  |  |  |  |  |  |  |  |  |  | 99 |
| O=C(Nn1c(CNN2C(=O)C(Cl)C2c2ccccc2O)nc2ccccc2c1=O)c1ccncc1 (stereo unspecified) | 1000 (≈ 2040 µM) | 1000 (≈ 2040 µM) |  | 125 (≈ 255 µM) | 250 (≈ 509 µM) | 125 (≈ 255 µM) | 100 (≈ 204 µM) | 250 (≈ 509 µM) | 250 (≈ 509 µM) | 250 (≈ 509 µM) | 250 (≈ 509 µM) |  |  |  |  |  |  | 97 |  |  |
| COC1=CC(=O)C[C@@H](C)[C@]12Oc1c(Cl)c(OC)cc(OC)c1C2=O [GRISEOFULVIN] | 100 (≈ 283 µM) | 100 (≈ 283 µM) |  |  |  |  |  |  | 500 (≈ 1420 µM) |  |  |  |  |  |  |  |  |  |  |  |
